The subject of one data set is fracture healing. Conditions: rats (Simon et al., 2002); cited from earlier work.
Data set [1] has as its system fracture callous mRNA expression. Description: Quantitative real-time PCR of fracture callous tissue in mouse fracture model. The data set is classed as in vivo, C57B/6 mice. Conditions: for Col 1 mRNA levels: Day 7, compared with controls (data not shown); for Runx2 mRNA levels: Day 10, vs control (montelukast sodium P<0.05; zileuton P=0.06); for osteocalcin mRNA levels: Day 10, vs control (montelukast sodium P<0.05; zileuton P=0.07); for CysLT1 receptor mRNA levels in fracture callous: Day 10, control peak expression significantly higher; for Col 10a1 mRNA levels: Day 14, vs control (P<0.01). From the text:
Fracture callous was harvested from animals (N=4) in the three treatment groups after sacrifice at days 7, 10, 14, and 21 and assayed for expression of chondrogenic markers by qPCR. See, FIG. 10. […] Although it is not necessary to understand the mechanism of an invention, it is believed that the expression of Sox9 and Col 2a mRNA indicate a cellular commitment to the chondrocyte phenotype.
(§1) C57B/6 mice were purchased (Charles River, Inc.Q3) and housed in the animal facility at the University of Massachusetts Medical School under IACUC approved protocol. Eight- to 9-week-old animals were used in the study.
(§2) Institutional approval was obtained and all procedures were undertaken in accordance with approved IACUC methods. Animals were administered general anesthesia using IP injections of ketamine and xylazine. A midline skin incision over the knee joint was utilized and a median parapatellar arthrotomy was performed to expose the trochlear groove. A pilot hole was made using a 25 gauge needle to gain access to the femoral canal. The central cannula from a 22 gauge spinal needle was inserted into the canal and passed to the proximal femur in retrograde fashion. The wire was backed out slightly, cut, and reinserted. Wounds were closed, and the femur was held in a fixed position while a drop weight from a standard height was used to deliver a fixed traumatic injury to the mid portion of the femur, generating a fracture via three point bending, and ensuring that fractures were generated using a traumatic method with reproducible energy of injury (Marturano et al., 2008).
Medications were suspended in 1% methylcellulose (Sigma, Inc.Q6) and delivered by direct intragastric delivery. […] As the study medications are both currently FDA approved for the treatment of reactive airway disease, our dosing frequency was based on current prescription guidelines. […] At the time the study began, zileuton was only approved for four times per Day dosing; as the drug needed to be administered by oral gavage and to maintain the normal sleep/awake cycle of the mouse colonies in the animal facilities, three doses of zileuton were dosed at 6-h intervals, with a 12-h break from 8 pm to 8 am. Control animals received 1% methylcellulose carrier only by a single daily oral gavage. The first dose of all medications was administered on post-fracture Day 1.
Mice were sacrificed on Days 7, 10, 14, and 21 post-fracture. The fractured limb was carefully dissected free and all overlying tissue was carefully removed to expose the fracture callous. Callous tissue alone was then placed in TRIzol reagent, avoiding the underlying cortical bone. The tissue was ground using a Polytron homogenizer and total RNA was isolated as per the manufacturer's instructions (InvitrogenQ11). Any potential DNA contamination was removed by RNase-free DNase treatment. The reverse transcription reaction was performed on […] of total RNA using the First Strand Synthesis Kit and random hexamer primers (Invitrogen). Relative transcript levels were measured by real-time PCR in a […] reaction volume on 96-well plate using ABI PRISM 7000 FAST sequence detection system (Applied BiosystemsQ12), following the recommended protocol for SYBR-Green (Applied Biosystems). Transcript levels were normalized with 18S ribosomal RNA levels using primers from Applied Biosystems and SYBR-Green master mix (Applied Biosystems). The primers used for amplification are described in Table 2.
Student's t-test was performed to analyze the significance of the data for gene expression and histomorphometric analysis.
Background: Quantitative PCR measures a nucleic acid by following its amplification.

Another data set has as its system fracture callous. Description: Mouse femur fracture model: histology and histomorphometry of fracture callous. The data set is classed as in vivo, C57B/6 mice. Conditions: for new bone formation by histomorphometry: Day 7 and Day 10, compared with controls; for amount of unmineralized chondroid matrix / callous size: Day 7 and Day 10 post fracture, vs control; for early stages of fracture repair (Safranin-O histology): animals sacrificed at Days 7, 10 and 14, oral gavage, montelukast sodium 1.5 mg/kg/Day, zileuton 45 mg/kg/Day; for fracture bridging and callous remodeling: by Day 21 (data not shown); for amount of chondroid (quantification) / percent chondroid (quantification) / total callous size (quantification): compared to control, montelukast sodium vs zileuton not significant.
Text: Because leukotrienes have been reported as potent inflammatory agents and may have a role as negative regulators of mesenchymal stem cell (MSC) differentiation, it was reasonable to determine as to whether inhibiting the effect of the cysteinyl leukotrienes would enhance chondrocyte proliferation in a bone healing from a fracture. See, Example II. […] Day 0 post-fracture X-rays were taken while under anesthesia. See, FIG. 3. Subsequent X-rays were taken at Days 7, 10, 14, and 21 for all animals (N=4) until the time of sacrifice. […] Histological sections for Days 7, 10, and 14 post-fracture where the differences between treated and control groups were most readily identifiable at early time points. See, FIG. 4. For example, evidence of healing was readily visible between the two treatment groups versus control as early as Day 7.
as §1, §2
Medications were suspended in 1% methylcellulose (Sigma, Inc.Q6) and delivered by direct intragastric delivery. […] As the study medications are both currently FDA approved for the treatment of reactive airway disease, our dosing frequency was based on current prescription guidelines. Montelukast sodium was administered once daily by oral gavage. At the time the study began, zileuton was only approved for four times per Day dosing; as the drug needed to be administered by oral gavage and to maintain the normal sleep/awake cycle of the mouse colonies in the animal facilities, three doses of zileuton were dosed at 6-h intervals, with a 12-h break from 8 pm to 8 am. Control animals received 1% methylcellulose carrier only by a single daily oral gavage. The first dose of all medications was administered on post-fracture Day 1.
All animals were examined pre- and post-fracture using live fluoroscopy with an inverted Xiscan 1000 fluoroscope. Pre-fracture imaging was used to confirm correct positioning of the stabilizing wire, and post-fracture imaging was used to confirm correct fracture location and configuration. Additionally, standard radiographs were obtained in all animals immediately post-fracture with a high resolution MX-20 Faxitron on mammography film. Animals were anesthetized for additional X-rays to document fracture repair at 7, […] Days post-fracture. Animals were sacrificed immediately post-fracture if the fracture was not diaphyseal and transverse.
Fracture specimens were harvested at various times (7, 10, 14, and 21 Days) and fixed in a solution of 4% paraformaldehyde, 0.1% CPC in PBS for 16 h at room temperature, and then embedded in paraffin after decalcification. Embedded tissues were sectioned into […] slices, mounted on silane-coated glass slides (FisherQ7), de-paraffinized, and re-hydrated. […]

The mark [2] stands for this setting: Day 10, vs control (P<0.05 for zileuton).

For the molecule `Cc1ccc(-c2cc(C(F)(F)F)nn2-c2ccc(S(N)(=O)=O)cc2)cc1` [celecoxib], the “fracture healing (radiographic, histological, mechanical testing)” value in the data set on fracture healing is given as “fracture healing failed”.

Turning to `CC(C)(O)c1ccccc1CCC(SCC1(CC(=O)O)CC1)c1cccc(C=Cc2ccc3ccc(Cl)cc3n2)c1` (centres unmarked) [montelukast sodium, [1-[[1-[3-[2-[(7-chloro-2-quinolyl)]vinyl]phenyl]-3-[2-(1-hydroxy-1-methyl-1-ethyl)phenyl]-propyl]sulfanylmethyl]-cyclopropyl]acetic acid], in data set [1], the “Col 1 mRNA levels” value is given as “decrease”, the “Runx2 mRNA levels” value was “higher”, the “osteocalcin mRNA levels” value is on record as “elevated” and the “CysLT1 receptor mRNA levels in fracture callous” value is listed as “low”. Besides, the “Col 10a1 mRNA levels” value in data set [1] is listed as “higher”. Also, in data set [1] (setting [2]), the “Col 2a1 mRNA expression” value is “not seen” and the “SOX9 mRNA expression” value is “not seen”. In addition, the “Col 2a1 mRNA expression” value in data set [1] (Day 14, vs control (P<0.05)) is on record as “elevated”. In data set [1] (controls peak at day 7), the “time of peak Sox9 mRNA levels” value is recorded as “peak later than controls at Day 10”. Also, in the data set on fracture callous, the “new bone formation by histomorphometry” value is “significantly greater”, the “amount of unmineralized chondroid matrix” value is “markedly increased”, the callous size is reported as “dramatically larger” and the “early stages of fracture repair (Safranin-O histology)” value is “enhances”. Also, in the data set on fracture callous, the “fracture bridging and callous remodeling” value was “bridged the ends of the fracture and remodeled the callous to woven bone”; the “amount of chondroid (quantification)” value was “significantly greater”; the “percent chondroid (quantification)” value is “significantly greater”; the “total callous size (quantification)” value is given as “significantly greater”.

As for `CS(=O)(=O)c1ccc(C2=C(c3ccccc3)C(=O)OC2)cc1` [rofecoxib], the “fracture healing (radiographic, histological, mechanical testing)” value with fracture healing is reported as “fracture healing failed”.

As to `CC(c1cc2ccccc2s1)N(O)C(N)=O` (centres unmarked) [zileuton], in data set [1], the “Col 1 mRNA levels” value is “decrease”, the “Runx2 mRNA levels” value is listed as “increased”, the “osteocalcin mRNA levels” value is “elevated” and the “CysLT1 receptor mRNA levels in fracture callous” value is listed as “low”. Further, in data set [1], the “Col 10a1 mRNA levels” value is given as “significantly higher”. In data set [1] (setting [2]), the “Col 2a1 mRNA expression” value is “elevated” and the “SOX9 mRNA expression” value is “elevated”. Besides, the “histone gene expression by qRT-PCR” value in data set [1] (data not shown) is listed as “higher”. In the data set on fracture callous, the “new bone formation by histomorphometry” value is on record as “significantly greater”, the “amount of unmineralized chondroid matrix” value is “markedly increased”, the callous size was “dramatically larger” and the “early stages of fracture repair (Safranin-O histology)” value was “enhances”. Also, in the data set with fracture callous, the “fracture bridging and callous remodeling” value was “bridged the ends of the fracture and remodeled the callous to woven bone”; the “amount of chondroid (quantification)” value was “significantly greater”; the “percent chondroid (quantification)” value is reported as “significantly greater”; the “total callous size (quantification)” value is given as “significantly greater”.

(Values after patent publication US20110021560A1, “Compositions And Methods For Regulating Chondrocyte Proliferation In Bone Disorders” (University of Massachusetts Medical School, priority 2009, published 2011).)
